According to paper PMC5874699, “Antimicrobial and Antibiofilm Activity of UP-5, an Ultrashort Antimicrobial Peptide Designed Using Only Arginine and Biphenylalanine” (Pharmaceuticals, 2018):

Experiments:
S. aureus (ATCC 43300) [1] = assay type: cell-based, Staphylococcus aureus; conditions: S. aureus ATCC 43300, antibiotic alone, triplicate; for Antibiotics MBC Alone: 99.9% killing; for Antibiotics MIC Alone: microbroth dilution
Excerpt: (§1) All bacterial susceptibility, biofilm, and synergistic assays of peptides, antibiotics, and peptides-antibiotics combinations used bacterial strains obtained from the American Type Tissue Culture Collection (ATCC, Manassas, VA, USA) that states the mechanism of resistance for each strain according to ATCC number. Gram-positive bacteria were represented by five strains, the wild type strain Staphylococcus aureus (ATCC 29213) and methicillin-resistant S. aureus (MRSA) (ATCC 33591) in addition to clinically isolated strains S. aureus (ATCC BAA-41& 43300) and Enterococcus faecalis (ATCC BAA-2316). The Gram-negative bacteria strains were represented by wild type strains of Escherichia coli (ATCC 25922 & 35218) and Pseudomonas aeruginosa (ATCC 27853) as well as the clinically isolated multidrug-resistant strain P. aeruginosa (ATCC BAA-2114). The bacteria were cultured onto Muller Hinton Agar (Scharlab, S.L, Barcelona, Spain). Mueller Hinton Broth (Oxoid Ltd., Basingstoke, UK) was used to prepare all bacterial suspensions and to dissolve the peptides and the antibiotics. The assay was performed in sterile 96-well polypropylene microtiter plates.
(§2) All bacterial susceptibility assays were conducted according to the microbroth dilution method outlined by the Clinical and Laboratory Standards Institute (CLSI) guidelines.
(§3) Briefly, pre-sterilized MHB was used as a growth medium for organisms obtained from stock media with glycerol. Bacterial cells were grown overnight in MHB and diluted to 10^6 CFU/mL in the same medium prior to use. For peptide, serial concentrations in the range of 0.5–100 μM were prepared. Then, 50 μL of each peptide concentration and 50 µL of diluted bacterial suspension were added to each well of a 96-well microtiter plate. Peptide solutions were prepared by dissolving the peptide in sterile MHB. Then, the plates were incubated overnight in a humidified atmosphere, and at 37 °C. Bacterial growth was determined by measuring the optical density (OD) at λ = 600 nm using an ELISA plate reader (Epoch, BioTek, Winooski, VT, USA) and the minimum inhibitory concentration (MIC) was determined.
(§4) As described in the previous section, the MIC and MBC values of antibiotics employed in this study were determined against subjected bacterial strains via preparing different concentrations of each antibiotic.

S. aureus (ATCC BAA-41) [2] = assay type: cell-based, Staphylococcus aureus; conditions: S. aureus ATCC BAA-41, antibiotic alone, triplicate; for Antibiotics MBC Alone: 99.9% killing; for Antibiotics MIC Alone: microbroth dilution
Excerpt: as §1, §2, §3, §4

[3] = tested on: Staphylococcus aureus (ATCC 29213); assay type: cell-based; conditions: S. aureus ATCC 29213, antibiotic alone, triplicate; for Antibiotics MBC Alone: 99.9% killing; for Antibiotics MIC Alone: microbroth dilution
Excerpt: as §1, §2, §3, §4

[4] = tested on: P. aeruginosa (ATCC BAA-2114); assay type: cell-based, Pseudomonas aeruginosa; conditions: P. auroginosa ATCC BAA-2114, antibiotic alone, triplicate; for Antibiotics MBC Alone: 99.9% killing; for Antibiotics MIC Alone: microbroth dilution
Excerpt: as §1, §2, §3, §4

S. aureus (ATCC 33591) = test: Broth microdilution checkerboard, UP-5 with antibiotics; assay type: cell-based, Staphylococcus aureus; conditions: for Effect of the combination according to FIC value: S. aureus (ATCC 33591), antibiotic-UP-5 combination; for Antibiotics Reduction in MIC (%) / Antibiotics MIC in Combination: S. aureus ATCC 33591; for Antibiotics Reduction in MIC (%): antibiotic MIC in combination with UP-5 compared to MIC alone; for Antibiotics MIC in Combination: antibiotic in combination with UP-5, checkerboard, triplicate
Excerpt: as §1
(§5) According to the broth microdilution checkerboard technique, the MIC and MBC values of peptide-antibiotics combinations against wild type and multidrug resistant bacterial strains were determined. Serial concentrations of peptide and each antibiotic were prepared in the range of 0.005–100 μM. In each well of a 96-well microtiter plate, 25 μL of each peptide concentration were added to 25 μL of each antibiotic concentration which is followed by adding 50 μL of diluted bacterial suspension (10^6 CFU/mL) to each well. The prepared concentrations of peptide and each antibiotic were arranged into rows and columns, respectively, in a 96-well microtiter plate according the checkerboard technique. Then as described previously (see Section 2.4.1), the procedure was followed. All MIC and MBC determinations of all assays were made in triplicate.
(§6) The fractional inhibitory concentration (FIC) is defined as the inhibitory concentration of the antimicrobial combination divided by that of the single antimicrobial component. To calculate FIC index for peptide-antibiotic combinations, the following equation was used:(1) FIC index=MIC of drug X in combination/MIC of drug X alone+MIC of drug Y in combination/MIC of drug Y alone
(§7) The FIC indices were interpreted as follows: ≤0.5: synergistic activity, 0.5–1: additive activity, 1–4 indifferent, >4: antagonism. Interpretation and assessment of the FIC indices were performed according to the broth microdilution checkerboard technique.

S. aureus (ATCC 29213) = test: as above; assay type: cell-based, Staphylococcus aureus; conditions: for Antibiotics Reduction in MIC (%) / Antibiotics MIC in Combination: S. aureus ATCC 29213; for Antibiotics Reduction in MIC (%): antibiotic MIC in combination with UP-5 compared to MIC alone; for Antibiotics MIC in Combination: antibiotic in combination with UP-5, checkerboard, triplicate
Excerpt: as §1, §5, §6, §7

S. aureus (ATCC 43300) [5] = test: as above; assay type: cell-based, Staphylococcus aureus; conditions: for Effect of the combination according to FIC value: S. aureus (ATCC 43300), antibiotic-UP-5 combination; for Antibiotics MIC in Combination / Antibiotics Reduction in MIC (%): S. aureus ATCC 43300; for Antibiotics MIC in Combination: antibiotic in combination with UP-5, checkerboard, triplicate; for Antibiotics Reduction in MIC (%): antibiotic MIC in combination with UP-5 compared to MIC alone
Excerpt: as §1, §5, §6, §7

S. aureus (ATCC BAA-41) [6] = test: as above; assay type: cell-based, Staphylococcus aureus; conditions: for Antibiotics MIC in Combination / Antibiotics Reduction in MIC (%): S. aureus ATCC BAA-41; for Antibiotics MIC in Combination: antibiotic in combination with UP-5, checkerboard, triplicate; for Antibiotics Reduction in MIC (%): antibiotic MIC in combination with UP-5 compared to MIC alone
Excerpt: as §1, §5, §6, §7

[7] = tested on: P. aeruginosa (ATCC BAA-2114); test: as above; assay type: cell-based, Pseudomonas aeruginosa; conditions: for Effect of the combination according to FIC value: P. aeruginosa (ATCC 2114 as printed), antibiotic-UP-5 combination; for Antibiotics Reduction in MIC (%) / Antibiotics MIC in Combination: P. auroginosa ATCC BAA-2114; for Antibiotics Reduction in MIC (%): antibiotic MIC in combination with UP-5 compared to MIC alone; for Antibiotics MIC in Combination: antibiotic in combination with UP-5, checkerboard, triplicate
Excerpt: as §1, §5, §6, §7

[8] = tested on: methicillin-resistant S. aureus (MRSA) (ATCC 33591); test: MIC/MBC, microbroth dilution (CLSI); assay type: cell-based, Staphylococcus aureus; conditions: S. aureus ATCC 33591, antibiotic alone, triplicate; for Antibiotics MBC Alone: 99.9% killing; for Antibiotics MIC Alone: microbroth dilution
Excerpt: as §1, §2, §3, §4

Structure (SMILES) | Antibiotics MBC Alone (S. aureus (ATCC 43300) [1]) [µM] | Antibiotics MIC Alone (S. aureus (ATCC 43300) [1]) [µM] | Antibiotics MBC Alone (S. aureus (ATCC BAA-41) [2]) [µM] | Antibiotics MIC Alone (S. aureus (ATCC BAA-41) [2]) [µM] | Antibiotics MBC Alone [3] [µM] | Antibiotics MIC Alone [3] [µM] | Antibiotics MBC Alone [4] [µM] | Antibiotics MIC Alone [4] [µM] | Effect of the combination according to FIC value (S. aureus (ATCC 33591)) | Antibiotics Reduction in MIC (%) (S. aureus (ATCC 33591)) | Antibiotics Reduction in MIC (%) (S. aureus (ATCC 29213)) | Antibiotics MIC in Combination (S. aureus (ATCC 29213)) [µM] | Effect of the combination according to FIC value (S. aureus (ATCC 43300) [5]) | Antibiotics MIC in Combination (S. aureus (ATCC 43300) [5]) [µM] | Antibiotics MIC in Combination (S. aureus (ATCC BAA-41) [6]) [µM] | Effect of the combination according to FIC value [7] | Antibiotics Reduction in MIC (%) [7] [%] | Antibiotics MIC in Combination [7] [µM] | Antibiotics MBC Alone [8] [µM] | Antibiotics MIC Alone [8] [µM] | also measured
CC1(C)S[C@@H]2[C@H](NC(=O)[C@H](N)c3ccccc3)C(=O)N2[C@H]1C(=O)O [Ampicillin, ampicillin] | 20 | 20 | 40 | 40 | 2.5 | 2.5 | > 500 | > 500 | synergistic (≤0.5: synergistic activity) | 85.3 | <50 | 2.5 | additive (0.5–1: additive activity) | 2.5 | 20 | additive (0.5–1: additive activity) | >50 | 250 | 85 | 85 | –
CC[C@H]1OC(=O)[C@H](C)[C@@H](O[C@H]2C[C@@](C)(OC)[C@@H](O)[C@H](C)O2)[C@H](C)[C@@H](O[C@@H]2O[C@H](C)C[C@H](N(C)C)[C@H]2O)[C@](C)(O)C[C@@H](C)C(=O)[C@H](C)[C@@H](O)[C@]1(C)O [Erythromycin, erythromycin] | 150 | 100 | 400 | 350 | 1.5 | 0.5 | 150 | – | – | <50 | <50 | 0.5 | – | 100 | – | additive (0.5–1: additive activity) | 60 | 50 | 10 | 8 | Antibiotics MIC in Combination (S. aureus (ATCC 33591)): 8 µM; Antibiotics Reduction in MIC (%) (S. aureus (ATCC 43300) [5]): <50%; Antibiotics Reduction in MIC (%) (S. aureus (ATCC BAA-41) [6]): 64.3%
CO[C@H]1/C=C/O[C@@]2(C)Oc3c(C)c(O)c4c(O)c(c(/C=N/N5CCN(C)CC5)c(O)c4c3C2=O)NC(=O)/C(C)=C\C=C\[C@H](C)[C@H](O)[C@@H](C)[C@@H](O)[C@@H](C)[C@H](OC(C)=O)[C@@H]1C [Rifampicin, rifampicin] | 1 | 1 | 0.005 | 0.005 | 0.025 | 0.025 | 50 | 50 | synergistic (≤0.5: synergistic activity) | 87.5 | <50 | 0.025 | synergistic (≤0.5: synergistic activity) | – | 0.002 | synergistic (≤0.5: synergistic activity) | – | 0.25 | 0.04 | 0.04 | Antibiotics MIC in Combination (S. aureus (ATCC 33591)): 0.005 µM; Effect of the combination according to FIC value (S. aureus (ATCC 29213); S. aureus (ATCC 29213), antibiotic-UP-5 combination): indifferent (1–4 indifferent); Antibiotics Reduction in MIC (%) (S. aureus (ATCC 43300) [5]): 87.5%; Effect of the combination according to FIC value (S. aureus (ATCC BAA-41) [6]; S. aureus (ATCC BAA-41), antibiotic-UP-5 combination): indifferent (1–4 indifferent); Antibiotics Reduction in MIC (%) (S. aureus (ATCC BAA-41) [6]): 60%
